The conditions of data set [1]: DTA; for Normal melting temperature: Crystal 1.
Data set [2] in a line: Molar enthalpy of transition or fusion. The conditions noted are these: Crystal 1; DSC.

SMILES strings stand for the structures. ± gives the expanded uncertainty stated by the source.

As to `CCCCCCCC/C=C\CCCCCCCC(=O)OCC(COC(=O)CCCCCCC/C=C\CCCCCCCC)OC(=O)CCCCCCC/C=C\CCCCCCCC` [1,2,3-tri(cis-9-octadecenoyl)glycerol], the Normal melting temperature in data set [1] amounted to 5.42 ± 0.39 °C. The Triple point temperature in data set [1] (Crystal 2) stood at 258.99 ± 0.66 K. Moreover, the “Molar enthalpy of transition or fusion” value in data set [2] came to 27.4 ± 0.598 kcal/mol.

`CCCCCCCCCCCCCCO` [1-tetradecanol]: the Normal melting temperature in data set [1] was 38.0 ± 0.53 °C. The Triple point temperature in data set [1] (Crystal 2) stood at 310.06 ± 0.78 K. Besides, the “Molar enthalpy of transition or fusion” value in data set [2] was 10.9 ± 0.454 kcal/mol.

With `CCCCCCCCCCO` [decan-1-ol], the Normal melting temperature in data set [1] was determined as 6.96 ± 0.56 °C. Also, the Triple point temperature in data set [1] (Crystal 2) amounted to 275.94 ± 0.68 K. The “Molar enthalpy of transition or fusion” value in data set [2] stood at 7.09 ± 0.43 kcal/mol.

Turning to `CCCCCCCCCC(=O)O` [decanoic acid], the Normal melting temperature in data set [1] was 32.33 ± 0.41 °C. For the same molecule, the “Molar enthalpy of transition or fusion” value in data set [2] was found to be 6.51 ± 0.217 kcal/mol.

Turning to `CCCCCCCCCCCCO` [dodecan-1-ol], in data set [1], the Normal melting temperature stood at 24.38 ± 0.39 °C. The Triple point temperature in data set [1] (Crystal 2) is 296.95 ± 0.39 K; in data set [1] (Crystal 3), 291.04 ± 0.7 K. For the same molecule, in data set [2], the “Molar enthalpy of transition or fusion” value was found to be 9.19 ± 0.335 kcal/mol.

Take `CCCCCCCCCCCC(=O)O` [dodecanoic acid]: the Normal melting temperature in data set [1] worked out at 45.33 ± 1 °C. Further, in data set [1] (Crystal 2), the Triple point temperature came out at 317.91 ± 0.46 K. Further, the “Molar enthalpy of transition or fusion” value in data set [2] came to 8.27 ± 0.502 kcal/mol.

With `CCCCCCCCCCCCCC(=O)O` [tetradecanoic acid], the Normal melting temperature in data set [1] amounted to 55.78 ± 0.5 °C. The Triple point temperature in data set [1] (Crystal 2) was 327.95 ± 0.7 K. Further, the “Molar enthalpy of transition or fusion” value in data set [2] came out at 10.5 ± 0.222 kcal/mol.

The values above are taken from the NIST ThermoML archive (doi:10.1016/j.fluid.2015.06.015).
